Assays:
[1] = biological target: Phosphatidylinositol 4,5-bisphosphate 3-kinase catalytic subunit beta isoform (Homo sapiens, UniProt P42338); test: Inhibition of PI3Kbeta (unknown origin)
[2] = biological target: Phosphatidylinositol 4,5-bisphosphate 3-kinase catalytic subunit alpha isoform (Homo sapiens, UniProt P42336, H1047R); test: Inhibition of PI3Kalpha H1047R mutant (unknown origin)
[3] = biological target: Phosphatidylinositol 4,5-bisphosphate 3-kinase catalytic subunit alpha isoform (Homo sapiens, UniProt P42336); test: Inhibition of wild type his-tagged PI3Kalpha (unknown origin)
[4] = biological target: T1, Phosphatidylinositol 4,5-bisphosphate 3-kinase catalytic subunit delta isoform (Homo sapiens, UniProt O00329); test: Inhibition of PI3Kdelta (unknown origin)
T1 sequence (O00329 whole entry): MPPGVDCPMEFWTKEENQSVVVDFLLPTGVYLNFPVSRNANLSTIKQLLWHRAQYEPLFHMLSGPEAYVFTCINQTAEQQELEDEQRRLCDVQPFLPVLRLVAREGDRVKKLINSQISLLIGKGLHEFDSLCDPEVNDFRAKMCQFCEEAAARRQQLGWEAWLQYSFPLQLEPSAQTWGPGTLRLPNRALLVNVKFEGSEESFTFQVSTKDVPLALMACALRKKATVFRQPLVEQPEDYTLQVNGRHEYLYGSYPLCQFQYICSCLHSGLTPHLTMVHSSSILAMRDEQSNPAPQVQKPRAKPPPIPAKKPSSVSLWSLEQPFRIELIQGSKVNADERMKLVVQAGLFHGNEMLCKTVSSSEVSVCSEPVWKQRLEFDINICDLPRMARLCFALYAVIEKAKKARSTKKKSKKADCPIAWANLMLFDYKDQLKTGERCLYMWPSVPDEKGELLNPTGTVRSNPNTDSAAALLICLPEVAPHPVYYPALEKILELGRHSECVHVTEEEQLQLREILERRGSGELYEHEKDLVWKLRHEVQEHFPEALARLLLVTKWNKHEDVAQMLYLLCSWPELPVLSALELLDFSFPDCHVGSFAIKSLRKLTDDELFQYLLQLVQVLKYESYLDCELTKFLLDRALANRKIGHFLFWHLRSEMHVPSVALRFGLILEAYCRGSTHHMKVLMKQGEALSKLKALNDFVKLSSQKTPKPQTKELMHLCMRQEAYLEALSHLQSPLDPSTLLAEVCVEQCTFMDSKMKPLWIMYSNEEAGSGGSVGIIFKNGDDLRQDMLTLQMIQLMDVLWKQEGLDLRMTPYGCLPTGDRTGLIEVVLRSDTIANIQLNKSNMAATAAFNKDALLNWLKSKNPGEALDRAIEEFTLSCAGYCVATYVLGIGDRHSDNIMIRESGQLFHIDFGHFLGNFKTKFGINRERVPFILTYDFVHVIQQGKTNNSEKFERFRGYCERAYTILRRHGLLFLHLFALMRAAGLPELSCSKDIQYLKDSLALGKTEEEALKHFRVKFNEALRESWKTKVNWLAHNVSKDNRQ

Homo sapiens [5] = organism: Homo sapiens; test: Selectivity ratio of IC50 for PI3Kbeta (unknown origin) to IC50 for wild type his-tagged PI3Kalpha (unknown origin)
[6] = biological target: Phosphatidylinositol 4,5-bisphosphate 3-kinase catalytic subunit gamma isoform (Homo sapiens, UniProt P48736); test: Inhibition of PI3Kgamma (unknown origin)
Homo sapiens [7] = organism: Homo sapiens; test: Selectivity ratio of IC50 for PI3Kdelta (unknown origin) to IC50 for wild type his-tagged PI3Kalpha (unknown origin)

Sequence of Phosphatidylinositol 4,5-bisphosphate 3-kinase catalytic subunit beta isoform (P42338 whole entry, canonical isoform): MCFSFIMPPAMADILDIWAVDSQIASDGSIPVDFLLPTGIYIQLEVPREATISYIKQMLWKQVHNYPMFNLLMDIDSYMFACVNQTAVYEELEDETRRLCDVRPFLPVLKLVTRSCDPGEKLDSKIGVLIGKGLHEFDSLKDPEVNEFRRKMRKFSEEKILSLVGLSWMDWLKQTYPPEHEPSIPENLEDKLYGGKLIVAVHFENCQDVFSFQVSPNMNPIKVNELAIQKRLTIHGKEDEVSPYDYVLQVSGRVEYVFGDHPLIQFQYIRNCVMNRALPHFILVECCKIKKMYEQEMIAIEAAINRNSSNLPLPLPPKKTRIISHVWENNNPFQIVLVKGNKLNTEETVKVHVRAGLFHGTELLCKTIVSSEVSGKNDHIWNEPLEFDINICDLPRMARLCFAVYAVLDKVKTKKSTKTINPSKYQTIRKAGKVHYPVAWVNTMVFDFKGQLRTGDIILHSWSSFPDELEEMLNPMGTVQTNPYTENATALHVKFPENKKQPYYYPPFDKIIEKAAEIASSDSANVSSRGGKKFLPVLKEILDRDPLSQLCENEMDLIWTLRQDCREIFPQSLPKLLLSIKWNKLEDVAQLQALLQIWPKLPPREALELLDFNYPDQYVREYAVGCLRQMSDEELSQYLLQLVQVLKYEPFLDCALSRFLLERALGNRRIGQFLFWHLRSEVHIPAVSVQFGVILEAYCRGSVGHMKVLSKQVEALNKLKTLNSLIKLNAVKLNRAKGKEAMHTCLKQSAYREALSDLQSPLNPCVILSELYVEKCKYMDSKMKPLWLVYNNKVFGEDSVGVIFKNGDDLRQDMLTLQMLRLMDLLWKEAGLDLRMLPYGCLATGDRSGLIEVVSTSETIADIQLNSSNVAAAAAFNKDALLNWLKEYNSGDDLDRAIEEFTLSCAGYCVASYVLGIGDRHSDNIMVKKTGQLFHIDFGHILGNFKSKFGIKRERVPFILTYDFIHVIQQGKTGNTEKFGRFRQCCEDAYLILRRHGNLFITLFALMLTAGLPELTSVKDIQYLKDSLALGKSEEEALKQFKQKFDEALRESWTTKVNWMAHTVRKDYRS
Sequence of Phosphatidylinositol 4,5-bisphosphate 3-kinase catalytic subunit alpha isoform (Homo sapiens, UniProt P42336, H1047R) (P42336 whole entry H1047R, canonical isoform): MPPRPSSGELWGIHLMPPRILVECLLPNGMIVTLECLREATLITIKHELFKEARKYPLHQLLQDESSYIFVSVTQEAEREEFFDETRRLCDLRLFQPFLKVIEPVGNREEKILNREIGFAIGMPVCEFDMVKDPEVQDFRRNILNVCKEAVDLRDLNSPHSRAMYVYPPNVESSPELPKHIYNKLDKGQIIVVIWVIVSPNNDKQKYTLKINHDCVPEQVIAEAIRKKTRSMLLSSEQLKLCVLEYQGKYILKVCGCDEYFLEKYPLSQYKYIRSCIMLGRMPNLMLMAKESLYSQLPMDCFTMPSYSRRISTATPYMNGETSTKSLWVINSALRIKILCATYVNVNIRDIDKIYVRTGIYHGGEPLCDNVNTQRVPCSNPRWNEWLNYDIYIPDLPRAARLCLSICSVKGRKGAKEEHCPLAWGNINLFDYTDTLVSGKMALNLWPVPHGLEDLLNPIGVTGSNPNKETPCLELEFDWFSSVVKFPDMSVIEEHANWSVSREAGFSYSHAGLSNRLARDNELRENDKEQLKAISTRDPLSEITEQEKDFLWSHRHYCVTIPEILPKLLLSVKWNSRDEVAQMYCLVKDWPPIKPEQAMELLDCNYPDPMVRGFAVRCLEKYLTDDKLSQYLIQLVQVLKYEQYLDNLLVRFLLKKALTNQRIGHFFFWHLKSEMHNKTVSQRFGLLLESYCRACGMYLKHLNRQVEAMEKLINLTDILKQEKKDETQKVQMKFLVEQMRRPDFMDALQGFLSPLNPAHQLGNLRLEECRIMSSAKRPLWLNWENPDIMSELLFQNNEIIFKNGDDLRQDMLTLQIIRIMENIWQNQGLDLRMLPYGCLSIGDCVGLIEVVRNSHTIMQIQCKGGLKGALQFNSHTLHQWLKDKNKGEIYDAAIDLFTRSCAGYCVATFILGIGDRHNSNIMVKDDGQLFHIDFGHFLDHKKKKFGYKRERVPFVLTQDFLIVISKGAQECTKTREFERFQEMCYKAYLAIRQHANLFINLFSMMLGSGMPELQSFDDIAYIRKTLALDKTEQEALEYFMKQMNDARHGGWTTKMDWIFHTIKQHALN
Sequence of Phosphatidylinositol 4,5-bisphosphate 3-kinase catalytic subunit gamma isoform (P48736 whole entry, canonical isoform): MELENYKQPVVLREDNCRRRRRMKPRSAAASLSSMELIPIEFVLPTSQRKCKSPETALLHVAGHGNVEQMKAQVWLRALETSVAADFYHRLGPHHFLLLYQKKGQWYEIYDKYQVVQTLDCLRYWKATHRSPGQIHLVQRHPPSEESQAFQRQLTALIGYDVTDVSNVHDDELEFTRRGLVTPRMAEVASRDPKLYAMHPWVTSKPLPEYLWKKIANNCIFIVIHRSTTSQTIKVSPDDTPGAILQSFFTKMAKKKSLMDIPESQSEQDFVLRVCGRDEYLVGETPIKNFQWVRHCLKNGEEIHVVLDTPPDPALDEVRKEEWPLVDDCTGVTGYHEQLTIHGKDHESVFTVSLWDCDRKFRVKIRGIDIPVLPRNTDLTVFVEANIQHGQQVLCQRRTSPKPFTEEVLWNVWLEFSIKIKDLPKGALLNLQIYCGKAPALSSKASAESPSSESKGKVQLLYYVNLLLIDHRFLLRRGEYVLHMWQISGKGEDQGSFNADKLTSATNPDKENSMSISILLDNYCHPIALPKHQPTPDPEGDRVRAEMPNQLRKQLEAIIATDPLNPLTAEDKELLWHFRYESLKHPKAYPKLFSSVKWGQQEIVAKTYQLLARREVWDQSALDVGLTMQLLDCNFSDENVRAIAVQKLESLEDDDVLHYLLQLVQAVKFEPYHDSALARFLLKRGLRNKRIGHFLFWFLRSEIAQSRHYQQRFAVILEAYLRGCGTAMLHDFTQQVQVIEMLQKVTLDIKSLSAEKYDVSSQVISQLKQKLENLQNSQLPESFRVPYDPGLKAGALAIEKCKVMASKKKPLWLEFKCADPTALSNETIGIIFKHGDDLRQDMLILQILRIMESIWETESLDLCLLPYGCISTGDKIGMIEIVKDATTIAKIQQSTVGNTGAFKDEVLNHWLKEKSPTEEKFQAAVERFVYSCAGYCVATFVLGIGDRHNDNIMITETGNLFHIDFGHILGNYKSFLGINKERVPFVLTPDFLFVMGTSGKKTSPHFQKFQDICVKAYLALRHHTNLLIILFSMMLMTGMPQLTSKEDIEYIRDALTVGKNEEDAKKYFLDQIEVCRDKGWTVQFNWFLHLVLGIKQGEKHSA
Sequence of Phosphatidylinositol 4,5-bisphosphate 3-kinase catalytic subunit alpha isoform (Homo sapiens, UniProt P42336) (P42336 whole entry, canonical isoform): as the sequence (P42336 whole entry H1047R, canonical isoform) above, with R1047H counted along it

SMILES | IC50 [1] | IC50 [2] | IC50 [3] | IC50 [4] | Ratio IC50 (Homo sapiens [5]) | IC50 [6] | Ratio IC50 (Homo sapiens [7])
COc1ccc(-c2cc(CNc3ccc(S(=O)(=O)Nc4nnc(C)s4)cc3)cc(C(=O)O)c2)cn1 | 149 nM | 8.5 nM | 10 nM | 59 nM | 5 | 2.6 nM | 5
COC(=O)c1cc(CNc2ccc(S(=O)(=O)Nc3nnc(C)s3)cc2)cc(-c2ccc(OC)nc2)c1 |  | 30 nM | 46 nM |  |  |  | 
COc1ccc(-c2cc(CNc3ccc(S(=O)(=O)Nc4nnc(C)s4)cc3)cc(C(=O)NCCc3ccccc3F)c2)cn1 | 700 nM | 13 nM | 6.5 nM | 10 nM |  | 4.4 nM | 
Cc1nnc(NS(=O)(=O)c2ccc(NCc3cc(C(=O)O)cc(-c4ccc5c(c4)OCO5)c3)cc2)s1 | 501 nM |  | 39.8 nM | 199 nM | 5 | 4 nM | 5
COC(=O)c1cc(I)cc(CNc2ccc(S(=O)(=O)Nc3nnc(C)s3)cc2)c1 |  | 13000 nM | > 25000 nM |  |  |  | 
COc1ccc(-c2cccc(CNc3ccc(S(=O)(=O)Nc4nnc(C)s4)cc3)c2)cn1 | 765 nM |  | 102 nM | 44 nM |  | 52 nM | 
COc1ccc(-c2cc(CNc3ccc(S(=O)(=O)N(C)c4nnc(C)s4)cc3)cc(C(=O)NCCc3ccccc3F)c2)cn1 | > 10000 nM | > 10000 nM | 2000 nM | 2000 nM |  | > 10000 nM | 
Cc1nnc(NS(=O)(=O)c2ccc(NCc3cc(C(=O)O)cc(-c4ccc5c(c4)OCCO5)c3)cc2)s1 | 126 nM |  | 12.6 nM | 63.1 nM | 5 | 2 nM | 5
COc1ccc(-c2cc(CNc3ccc(S(=O)(=O)Nc4nnc(C)s4)cc3)cc(C(=O)NCCC(C)C)c2)cn1 | 398 nM | 11 nM | 9.6 nM | 4 nM |  | 10 nM | 
COc1ccc(-c2cc(CNc3ccc(S(=O)(=O)Nc4nnc(C)s4)cc3)cc(C(=O)NC(CO)CO)c2)cn1 | 790 nM | 16 nM | 16 nM | 20 nM |  | 25 nM | 

From ChEMBL document CHEMBL3580636, “Discovery of a Potent Class of PI3Kα Inhibitors with Unique Binding Mode via Encoded Library Technology (ELT)” (ACS Med Chem Lett, 2015)
